This experiment has as its target T1, human S1P1 receptor (Homo sapiens, UniProt P21453).
T1 construct: expressed in transfected cells; membranes used
The experiment can be described thus: GTP γ35S binding assay for S1P1 activity. To be noted: membranes, 30 min at 25° C., read-out: S1P1 EC50 (Activity potency: S1P1 receptor from GTP γ35S). It counts as biochemical. The procedure:
Compounds were tested for S1P1 activity using the GTP γ^35S binding assay. These compounds may be assessed for their ability to activate or block activation of the human S1P1 receptor in cells stably expressing the S1P1 receptor.
GTP γ^35S binding was measured in the medium containing (mM) HEPES 25, pH 7.4, MgCl2 10, NaCl 100, dithitothreitol 0.5, digitonin 0.003%, 0.2 nM GTP γ^35S, and 5 μg membrane protein in a volume of 150 μl. Test compounds were included in the concentration range from 0.08 to 5,000 nM unless indicated otherwise. Membranes were incubated with 100 μM 5′-adenylylimmidodiphosphate for 30 min, and subsequently with 10 μM GDP for 10 min on ice. Drug solutions and membrane were mixed, and then reactions were initiated by adding GTP γ^35S and continued for 30 min at 25° C. Reaction mixtures were filtered over Whatman GF/B filters under vacuum, and washed three times with 3 mL of ice-cold buffer (HEPES 25, pH7.4, MgCl2 10 and NaCl 100). Filters were dried and mixed with scintillant, and counted for ^35S activity using a β-counter. Agonist-induced GTP γ^35S binding was obtained by subtracting that in the absence of agonist. Binding data were analyzed using a non-linear regression method. In case of antagonist assay, the reaction mixture contained 10 nM S1P in the presence of test antagonist at concentrations ranging from 0.08 to 5000 nM.
A general note: Binding of GTPγS marks nucleotide exchange on a G protein.

Broadly, the EC50 is the concentration giving half of the maximal effect.

T1 sequence (P21453 whole entry): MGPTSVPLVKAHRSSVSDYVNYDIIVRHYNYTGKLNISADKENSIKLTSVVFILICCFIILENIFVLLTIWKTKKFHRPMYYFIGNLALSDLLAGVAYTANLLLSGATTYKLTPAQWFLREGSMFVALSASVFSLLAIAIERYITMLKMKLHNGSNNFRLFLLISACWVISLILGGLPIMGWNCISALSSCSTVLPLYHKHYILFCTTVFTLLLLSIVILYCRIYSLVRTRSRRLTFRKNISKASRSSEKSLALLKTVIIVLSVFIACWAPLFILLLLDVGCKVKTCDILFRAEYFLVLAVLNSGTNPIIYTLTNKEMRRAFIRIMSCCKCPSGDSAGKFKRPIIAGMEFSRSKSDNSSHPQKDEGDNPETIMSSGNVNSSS

In the case of `O=P(O)(O)CCCNCc1ccc(OCCCCCc2ccccc2)c(-c2ccco2)c1` [Compound 1, [3-({3-(2-furyl)-4-[(5-phenylpentyl)oxy]benzyl}amino)propyl]phosphonic acid], the EC50 was 0.9 nM.

For the compound `O=P(O)(O)CCCNCc1ccc(OCCCCCc2ccccc2)c(-c2ncco2)c1` [Compound 2, [3-({3-(1,3-oxazol-2-yl)-4-[(5-phenylpentyl)oxy]benzyl}amino)propyl]phosphonic acid], the EC50 amounted to 11.9 nM.

With `O=P(O)(O)CCCNCc1ccc(OCCCCCc2ccccc2)c(-c2nccs2)c1` [Compound 3, [3-({4-[(5-phenylpentyl)oxy]-3-(1,3-thiazol-2-yl)benzyl}amino)propyl]phosphonic acid], the EC50 was determined as 2 nM.

Regarding `O=P(O)(O)CCCNCc1ccc(OCCCCCc2ccccc2)c(-c2ccoc2)c1` [Compound 4, [3-({3-(3-furyl)-4-[(5-phenylpentyl)oxy]benzyl}amino)propyl]phosphonic acid], the concentration giving a half-maximal response (EC50) is 0.6 nM.

On to `O=P(O)(O)CCCNCc1ccc(OCCCCCc2ccccc2)c(-c2ccsc2)c1` [Compound 5, [3-({4-[(5-phenylpentyl)oxy]-3-(3-thienyl)benzyl}amino)propyl]phosphonic acid], for which the EC50 came out at 3.3 nM.

In the case of `CC(C)Cc1ccc(CCCOc2ccc(CNCCCP(=O)(O)O)cc2-c2cccs2)cc1` [Compound 7, [3-({4-[3-(4-isobutylphenyl)propoxy]-3-(2-thienyl)benzyl}amino)propyl]phosphonic acid], the 50% effective concentration (EC50) was determined as 14.9 nM.

For `O=P(O)(O)CCCNCc1ccc(OCCCCCc2ccccc2)c(C2=CCCC2)c1` [Compound 8, [3-({3-cyclopent-1-en-1-yl-4-[(5-phenylpentyl)oxy]benzyl}amino)propyl]phosphonic acid], the EC50 was determined as 3.4 nM.

With `O=P(O)(O)OCCNCc1ccc(OCCCCCc2ccccc2)c(-c2cccs2)c1` [Compound 9, 2-({4-[(5-phenylpentyl)oxy]-3-(2-thienyl)benzyl}amino)ethyl dihydrogen phosphate], the EC50 was 1.5 nM.

For the compound `O=S(=O)(O)CCCNCc1ccc(OCCCCCc2ccccc2)c(-c2cccs2)c1` [Compound 10, 3-({4-[(5-phenylpentyl)oxy]-3-(2-thienyl)benzyl}amino)propane-1-sulfonic acid], the EC50 turned out to be 10.1 nM.

For the compound `CP(=O)(O)CCCNCc1ccc(OCCCCCc2ccccc2)c(-c2cccs2)c1` [Compound 11, methyl[3-({4-[(5-phenylpentyl)oxy]-3-(2-thienyl)benzyl}amino)propyl]phosphinic acid], the EC50 stood at 23 nM.

As for `CC(CO)NCc1ccc(OCCCCCc2ccccc2)c(-c2cccs2)c1` (centres unmarked) [Compound 12, 2-({4-[(5-phenylpentyl)oxy]-3-(2-thienyl)benzyl}amino)propan-1-ol], the EC50 stood at 241 nM.

For the compound `OCC(CO)NCc1ccc(OCCCCCc2ccccc2)c(-c2cccs2)c1` [Compound 13, 2-({4-[(5-phenylpentyl)oxy]-3-(2-thienyl)benzyl}amino)propane-1,3-diol], the EC50 is 714 nM.

With `O=P(O)(O)CCCNCc1ccc(OCCCCCc2ccccc2)c(-c2ccoc2)n1` [Compound 14, {3-[({6-(3-furyl)-5-[(5-phenylpentyl)oxy]pyridin-2-yl}methyl)amino]propyl}phosphonic acid], the EC50 was 1 nM.

In the case of `O=P(O)(O)CCCNCc1ccc(OCCCCCc2ccccc2)c(-c2cccs2)n1` [Compound 15, {3-[({5-[(5-phenylpentyl)oxy]-6-(2-thienyl)pyridin-2-yl}methyl)amino]propyl}phosphonic acid], the EC50 came out at 0.77 nM.

For the compound `CCCCCCCCCOc1ccc(CNCCCP(=O)(O)O)cc1-c1cccs1` [Compound 16, (3-{[4-(nonyloxy)-3-(2-thienyl)benzyl]amino}propyl)phosphonic acid], the concentration giving a half-maximal response (EC50) was 517 nM.

As for `CCCCCCCCCCOc1ccc(CNCCCP(=O)(O)O)cc1-c1cccs1` [Compound 17, (3-{[4-(decyloxy)-3-(2-thienyl)benzyl]amino}propyl)phosphonic acid], the 50% effective concentration (EC50) turned out to be 294 nM.

As for `O=P(O)(O)CCCNCc1ccc(OCCCCCc2ccccc2)c(-c2ccc(F)s2)c1` [Compound 18], the EC50 is 2 nM.

The values above are taken from patent US8741875B2, “Compounds as receptor modulators with therapeutic utility” (Allergan, Inc., priority 2009, dated 2014).
